Read-outs that look alike come from different tables or passages of the source.
Tests used:
Test in all cases: HotSpot kinase profiling
Assay type in all cases: biochemical
FYN = biological target: T1, FYN (Homo sapiens, UniProt P06241)
T1 construct: purchased Reaction Biology Corp
How it was run: (§1)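 Activity is measured by radiolabel transfer captured on P81 filters after a 2 h room-temperature reaction of kinase, substrate and cofactors. Values are percent inhibition against DMSO.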

PKCmu/PRKD1 = biological target: T2, PKCmu/PRKD1 (Homo sapiens, UniProt Q15139)
T2 construct: purchased Reaction Biology Corp
T2 sequence (Q15139 1-912): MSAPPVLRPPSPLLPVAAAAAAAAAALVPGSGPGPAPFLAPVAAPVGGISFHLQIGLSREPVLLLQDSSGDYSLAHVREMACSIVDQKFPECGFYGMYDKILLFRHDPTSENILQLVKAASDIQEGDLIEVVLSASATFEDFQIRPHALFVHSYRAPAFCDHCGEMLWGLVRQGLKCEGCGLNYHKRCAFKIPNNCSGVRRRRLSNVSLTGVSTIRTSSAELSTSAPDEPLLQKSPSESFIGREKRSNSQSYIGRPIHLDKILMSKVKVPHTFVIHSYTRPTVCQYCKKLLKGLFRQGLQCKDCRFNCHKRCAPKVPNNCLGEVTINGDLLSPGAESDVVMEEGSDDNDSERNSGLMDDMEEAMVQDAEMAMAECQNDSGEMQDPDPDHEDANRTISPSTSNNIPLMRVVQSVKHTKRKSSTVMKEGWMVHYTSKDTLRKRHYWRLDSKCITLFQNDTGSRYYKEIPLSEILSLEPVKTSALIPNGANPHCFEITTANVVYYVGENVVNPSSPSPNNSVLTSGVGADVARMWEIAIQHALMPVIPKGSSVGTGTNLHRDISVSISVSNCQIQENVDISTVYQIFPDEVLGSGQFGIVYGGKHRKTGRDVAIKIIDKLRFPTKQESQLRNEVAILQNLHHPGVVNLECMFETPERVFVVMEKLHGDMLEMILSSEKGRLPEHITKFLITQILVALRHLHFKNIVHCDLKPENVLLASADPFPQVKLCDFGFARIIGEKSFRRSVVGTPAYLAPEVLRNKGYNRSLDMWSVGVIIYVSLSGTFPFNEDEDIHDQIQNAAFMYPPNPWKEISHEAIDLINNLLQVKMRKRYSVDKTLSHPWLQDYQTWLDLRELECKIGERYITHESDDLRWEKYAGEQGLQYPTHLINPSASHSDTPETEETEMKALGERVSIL
How it was run: as §1

RAF1 = conditions: 3 μM
How it was run: as §1

PKCd = biological target: T3, PKCd (Homo sapiens, UniProt Q05655)
T3 construct: purchased Reaction Biology Corp
How it was run: as §1

PKCepsilon = biological target: T4, PKCepsilon (Homo sapiens, UniProt Q02156)
T4 construct: purchased Reaction Biology Corp
T4 sequence (Q02156 1-737): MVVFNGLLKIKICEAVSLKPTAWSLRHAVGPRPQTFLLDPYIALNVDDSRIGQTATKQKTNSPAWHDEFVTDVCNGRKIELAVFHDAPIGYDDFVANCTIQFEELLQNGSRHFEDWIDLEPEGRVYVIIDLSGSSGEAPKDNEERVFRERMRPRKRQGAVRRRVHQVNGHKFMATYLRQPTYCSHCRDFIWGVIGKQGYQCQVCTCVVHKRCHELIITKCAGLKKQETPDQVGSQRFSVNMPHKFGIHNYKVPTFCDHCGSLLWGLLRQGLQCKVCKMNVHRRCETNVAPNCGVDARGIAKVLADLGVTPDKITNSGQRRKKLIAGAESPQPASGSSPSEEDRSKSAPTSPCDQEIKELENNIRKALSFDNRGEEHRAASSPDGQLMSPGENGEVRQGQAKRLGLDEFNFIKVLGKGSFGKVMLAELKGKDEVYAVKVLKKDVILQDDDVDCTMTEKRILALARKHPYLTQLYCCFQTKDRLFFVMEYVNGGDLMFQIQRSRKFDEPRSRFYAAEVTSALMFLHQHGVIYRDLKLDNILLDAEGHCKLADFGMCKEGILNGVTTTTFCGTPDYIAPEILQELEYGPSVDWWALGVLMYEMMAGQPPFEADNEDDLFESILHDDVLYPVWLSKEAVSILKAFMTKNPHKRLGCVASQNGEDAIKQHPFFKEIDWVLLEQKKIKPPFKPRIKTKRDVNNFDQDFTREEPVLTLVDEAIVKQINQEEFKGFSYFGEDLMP
How it was run: as §1

PLK3 = biological target: T5, PLK3 (Homo sapiens, UniProt Q9H4B4)
T5 construct: purchased Reaction Biology Corp
How it was run: as §1

SRPK2 = biological target: T6, SRPK2 (Homo sapiens, UniProt P78362)
T6 construct: purchased Reaction Biology Corp
How it was run: as §1

HIPK3 = biological target: T7, HIPK3 (Homo sapiens, UniProt Q9H422)
T7 construct: purchased Reaction Biology Corp
How it was run: as §1

[1] = read-out: % Enzyme Activity (relative to DMSO controls) Run 1
[2] = read-out: % Enzyme Activity (relative to DMSO controls) Run 2

T1 sequence (P06241 whole entry): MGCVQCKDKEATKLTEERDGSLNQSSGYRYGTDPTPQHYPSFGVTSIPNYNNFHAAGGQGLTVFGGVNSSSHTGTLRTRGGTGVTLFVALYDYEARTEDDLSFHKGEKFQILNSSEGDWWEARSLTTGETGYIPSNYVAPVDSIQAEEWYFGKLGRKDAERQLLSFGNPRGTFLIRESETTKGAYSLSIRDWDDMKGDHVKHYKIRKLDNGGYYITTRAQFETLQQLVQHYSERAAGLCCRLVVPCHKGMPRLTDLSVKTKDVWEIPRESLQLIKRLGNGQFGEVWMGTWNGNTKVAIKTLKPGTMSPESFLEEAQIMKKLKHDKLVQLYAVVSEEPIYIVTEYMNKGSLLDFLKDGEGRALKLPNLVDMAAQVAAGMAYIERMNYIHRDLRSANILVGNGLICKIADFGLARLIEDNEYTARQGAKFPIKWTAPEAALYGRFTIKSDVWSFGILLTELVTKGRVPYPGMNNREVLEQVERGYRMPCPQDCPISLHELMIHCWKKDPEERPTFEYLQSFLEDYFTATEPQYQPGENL
T3 sequence (Q05655 whole entry): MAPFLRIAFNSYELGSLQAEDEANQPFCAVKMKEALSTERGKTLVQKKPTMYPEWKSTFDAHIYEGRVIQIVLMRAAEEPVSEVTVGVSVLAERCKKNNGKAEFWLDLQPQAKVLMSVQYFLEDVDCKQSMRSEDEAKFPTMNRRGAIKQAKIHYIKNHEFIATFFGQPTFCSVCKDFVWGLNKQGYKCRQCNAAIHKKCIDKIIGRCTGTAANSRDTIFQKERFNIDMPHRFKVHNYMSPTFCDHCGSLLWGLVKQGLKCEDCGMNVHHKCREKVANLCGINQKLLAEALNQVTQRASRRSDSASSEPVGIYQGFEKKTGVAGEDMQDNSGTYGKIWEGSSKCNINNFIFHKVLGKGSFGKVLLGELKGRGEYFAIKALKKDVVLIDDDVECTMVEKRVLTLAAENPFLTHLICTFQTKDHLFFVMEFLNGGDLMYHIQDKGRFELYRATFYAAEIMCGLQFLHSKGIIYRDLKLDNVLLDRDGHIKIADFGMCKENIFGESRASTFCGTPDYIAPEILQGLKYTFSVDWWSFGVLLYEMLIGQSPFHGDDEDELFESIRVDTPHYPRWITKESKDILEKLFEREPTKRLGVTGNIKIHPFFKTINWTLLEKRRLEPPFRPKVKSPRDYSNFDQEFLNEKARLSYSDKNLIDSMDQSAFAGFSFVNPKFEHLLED
T6 sequence (P78362 whole entry): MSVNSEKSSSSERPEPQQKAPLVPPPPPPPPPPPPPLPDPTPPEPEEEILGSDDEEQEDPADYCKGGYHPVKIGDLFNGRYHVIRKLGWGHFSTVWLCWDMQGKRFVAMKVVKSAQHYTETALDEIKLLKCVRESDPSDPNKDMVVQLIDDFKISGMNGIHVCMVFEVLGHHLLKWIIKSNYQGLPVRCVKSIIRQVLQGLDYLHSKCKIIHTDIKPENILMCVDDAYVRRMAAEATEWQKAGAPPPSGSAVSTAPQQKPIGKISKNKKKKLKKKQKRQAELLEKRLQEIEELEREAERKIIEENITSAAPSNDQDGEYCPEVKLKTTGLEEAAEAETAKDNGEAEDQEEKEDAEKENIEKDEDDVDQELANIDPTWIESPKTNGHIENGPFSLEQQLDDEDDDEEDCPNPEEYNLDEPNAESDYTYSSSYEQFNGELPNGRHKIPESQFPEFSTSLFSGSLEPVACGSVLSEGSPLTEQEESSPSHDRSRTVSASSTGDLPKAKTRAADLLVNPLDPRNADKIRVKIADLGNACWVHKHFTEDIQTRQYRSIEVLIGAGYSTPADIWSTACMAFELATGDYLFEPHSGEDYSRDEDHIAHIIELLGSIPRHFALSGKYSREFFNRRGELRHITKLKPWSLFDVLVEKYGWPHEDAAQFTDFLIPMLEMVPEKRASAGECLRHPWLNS
T5 sequence (Q9H4B4 whole entry): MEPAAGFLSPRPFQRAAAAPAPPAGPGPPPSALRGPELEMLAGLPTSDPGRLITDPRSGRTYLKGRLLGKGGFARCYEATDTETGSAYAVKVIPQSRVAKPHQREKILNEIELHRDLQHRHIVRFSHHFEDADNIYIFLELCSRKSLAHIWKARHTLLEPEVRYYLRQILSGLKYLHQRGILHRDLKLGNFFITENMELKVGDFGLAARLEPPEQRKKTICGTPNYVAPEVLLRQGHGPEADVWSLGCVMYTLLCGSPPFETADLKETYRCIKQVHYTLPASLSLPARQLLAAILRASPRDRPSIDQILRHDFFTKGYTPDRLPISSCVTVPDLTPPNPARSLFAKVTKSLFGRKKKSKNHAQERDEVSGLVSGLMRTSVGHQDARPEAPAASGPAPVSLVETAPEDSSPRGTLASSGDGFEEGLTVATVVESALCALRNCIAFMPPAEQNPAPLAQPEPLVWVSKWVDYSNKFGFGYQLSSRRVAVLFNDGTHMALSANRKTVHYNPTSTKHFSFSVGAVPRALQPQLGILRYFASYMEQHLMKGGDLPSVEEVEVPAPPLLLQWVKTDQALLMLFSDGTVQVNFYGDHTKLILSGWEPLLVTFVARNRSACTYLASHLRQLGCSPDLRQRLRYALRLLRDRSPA
T7 sequence (Q9H422 whole entry): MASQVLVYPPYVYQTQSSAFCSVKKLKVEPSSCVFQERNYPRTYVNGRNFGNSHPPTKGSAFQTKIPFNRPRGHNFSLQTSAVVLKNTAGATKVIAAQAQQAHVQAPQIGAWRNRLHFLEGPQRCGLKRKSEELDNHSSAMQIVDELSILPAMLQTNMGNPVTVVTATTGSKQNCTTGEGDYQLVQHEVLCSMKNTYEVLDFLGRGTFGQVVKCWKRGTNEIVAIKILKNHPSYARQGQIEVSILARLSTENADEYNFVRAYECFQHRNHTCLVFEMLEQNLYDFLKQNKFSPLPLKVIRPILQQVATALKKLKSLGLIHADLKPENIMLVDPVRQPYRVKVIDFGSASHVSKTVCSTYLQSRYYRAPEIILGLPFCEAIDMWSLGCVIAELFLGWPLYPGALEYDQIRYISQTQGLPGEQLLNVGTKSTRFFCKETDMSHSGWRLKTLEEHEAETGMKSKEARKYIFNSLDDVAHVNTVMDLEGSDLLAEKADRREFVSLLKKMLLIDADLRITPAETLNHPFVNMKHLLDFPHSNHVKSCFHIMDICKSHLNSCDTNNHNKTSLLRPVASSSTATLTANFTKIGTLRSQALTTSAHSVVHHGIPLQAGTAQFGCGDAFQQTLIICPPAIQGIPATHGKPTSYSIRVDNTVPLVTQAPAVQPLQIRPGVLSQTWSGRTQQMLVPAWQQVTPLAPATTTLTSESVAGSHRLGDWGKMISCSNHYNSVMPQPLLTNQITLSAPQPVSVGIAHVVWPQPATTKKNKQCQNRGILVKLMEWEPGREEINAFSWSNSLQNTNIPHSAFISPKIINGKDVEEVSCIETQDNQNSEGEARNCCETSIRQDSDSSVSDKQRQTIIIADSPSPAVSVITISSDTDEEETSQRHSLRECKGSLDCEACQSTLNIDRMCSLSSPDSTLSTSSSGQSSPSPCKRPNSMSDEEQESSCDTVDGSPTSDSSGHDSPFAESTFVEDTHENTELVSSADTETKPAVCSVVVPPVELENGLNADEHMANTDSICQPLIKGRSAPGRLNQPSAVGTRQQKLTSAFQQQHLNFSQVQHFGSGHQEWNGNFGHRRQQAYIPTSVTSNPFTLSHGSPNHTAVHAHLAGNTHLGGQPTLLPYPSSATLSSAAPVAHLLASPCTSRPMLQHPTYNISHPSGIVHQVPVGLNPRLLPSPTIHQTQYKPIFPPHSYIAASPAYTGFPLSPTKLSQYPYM

## C=CC(=O)Nc1cccc(Nc2nc(Nc3ccc(OCCOC)c(F)c3)ncc2F)c1 [Compound 2]
FYN
  inhibition at 3 µM: 18.5%
FYN; [1]
  remaining activity at 3 µM: 81.1%
FYN; [2]
  remaining activity at 3 µM: 81.8%
PKCmu/PRKD1
  inhibition at 3 µM: 24.6%
PKCmu/PRKD1; [1]
  remaining activity at 3 µM: 74.8%
PKCmu/PRKD1; [2]
  remaining activity at 3 µM: 75.8%
RAF1
  % Enzyme Activity (relative to DMSO controls) Run 1: 83.34%
  % Enzyme Activity (relative to DMSO controls) Run 2: 83.62%
  Average % Inhibition: 16.52%
PKCd
  inhibition at 3 µM: 1.78%
PKCd; [1]
  remaining activity at 3 µM: 100%
PKCd; [2]
  remaining activity at 3 µM: 96%
PKCepsilon
  inhibition at 3 µM: 6.29%
PKCepsilon; [1]
  remaining activity at 3 µM: 93.2%
PKCepsilon; [2]
  remaining activity at 3 µM: 94.2%
PLK3
  inhibition at 3 µM: 1.28%
PLK3; [1]
  remaining activity at 3 µM: 97%
PLK3; [2]
  remaining activity at 3 µM: 100%
SRPK2
  inhibition at 3 µM: 9.73%
SRPK2; [1]
  remaining activity at 3 µM: 90.9%
SRPK2; [2]
  remaining activity at 3 µM: 89.6%
HIPK3
  inhibition at 3 µM: -15.1%
HIPK3; [1]
  remaining activity at 3 µM: 112%
HIPK3; [2]
  remaining activity at 3 µM: 118%

From patent publication US9492471B2, “Methods of treating a disease or disorder associated with Bruton'S Tyrosine Kinase” (Celgene Avilomics Research, Inc., priority 2013, dated 2016)
